# Assays:
# Type in all cases: functional
# Helicobacter pylori [1] = test: Antimicrobial activity against Helicobacter pylori TF1
# Helicobacter pylori [2] = test: Antimicrobial activity against Helicobacter pylori TF2
# Helicobacter pylori [3] = test: Antimicrobial activity against Helicobacter pylori TF4
# Helicobacter pylori [4] = test: Antimicrobial activity against Helicobacter pylori TS1900
# Helicobacter pylori [5] = test: Antimicrobial activity against compound-resistant Helicobacter pylori harboring 23S rRNA mutant gene
# Helicobacter pylori [6] = test: Antimicrobial activity against clarithromycin-susceptible Helicobacter pylori ATCC 700392 transformant harboring 23S rRNA of Helicobacter pylori TS1900
# Helicobacter pylori [7] = test: Antimicrobial activity against Helicobacter pylori TF3
# Helicobacter pylori [8] = test: Antimicrobial activity against Helicobacter pylori
# Helicobacter pylori [9] = test: Antimicrobial activity against Helicobacter pylori S1900
# Helicobacter pylori [10] = test: Antimicrobial activity against Helicobacter pylori TS1776
structure (smiles),measurement,setting,value
CC[C@H]1OC(=O)[C@H](C)[C@@H](O[C@H]2C[C@@](C)(OC)[C@@H](O)[C@H](C)O2)[C@H](C)[C@@H](O[C@@H]2O[C@H](C)C[C@H](N(C)C)[C@H]2O)[C@](C)(OC)C[C@@H](C)C(=O)[C@H](C)[C@@H](O)[C@]1(C)O [CLARITHROMYCIN],MIC,Helicobacter pylori [1],0.5 µg/mL
same,MIC,Helicobacter pylori [2],0.25 µg/mL
same,MIC,Helicobacter pylori [3],1 µg/mL
same,MIC,Helicobacter pylori [4],1 µg/mL
same,MIC,Helicobacter pylori [5],2 µg/mL
same,MIC,Helicobacter pylori [6],≤ 0.008 µg/mL
same,MIC,Helicobacter pylori [7],1 µg/mL
same,MIC,Helicobacter pylori [8],≥ 0.125 µg/mL
same,MIC,Helicobacter pylori [9],1 µg/mL
same,MIC,Helicobacter pylori [10],0.5 µg/mL
